Assay results taken from patent US20200108066A1, “METHODS FOR MODULATING REGULATORY T CELLS AND IMMUNE RESPONSES USING CDK4/6 INHIBITORS” (Dana-Farber Cancer Institute, Inc., priority 2017, published 2020).

What was measured:
[1] = system: MDA-MB-453 and BT474 cells; assay: Doxorubicin-induced senescence; assay type: cell-based, human; settings: doxorubicin 200 nM 24 h, RNA 72 hours later
Method: MDA-MB-453 and BT474 cells were treated with doxorubicin (Sigma Aldrich, 200 nM) for a period of 24 hrs. The cells were then cultured in fresh media for 72 hours after treatment, and RNA was extracted for qPCR.

[2] = system: MMTV-rtTA/tetO-HER2 tumors; assay: Combined abemaciclib and anti-PD-L1 therapy in MMTV-rtTA/tetO-HER2 tumor bearing mice; assay type: in vivo, mouse
Method: After 3 days, the dose was dropped to 75 mg/kg daily and treatment with an anti-PD-L1 antibody (200 μg by intraperitoneal injection every 72 hours; BioXcell, clone 10F.9G2) or an isotype control antibody (200 μg by intraperitoneal injection every 72 hours) was commenced. Mice were euthanized using CO2 inhalation, and all mouse experiments were performed in accordance with protocols approved by the Institutional Animal Care and Use Committees of Dana-Farber Cancer Institute, Harvard Medical School, and Boston Children's Hospital.

[3] = system: thymocytes; assay: Thymic mass and thymic cell populations in tumor-free FVB mice; assay type: in vivo, mouse; settings: 12 days
Method: FIG. 10 includes 9 panels, identified as panels A, B, C, D, E, F, G, H, and I, which show the impact of CDK4/6 inhibition on immune cell populations and Treg biology. […] Panel C compares thymic mass with or without abemaciclib/palbociclib treatment. Thymic cell populations were quantified by flow cytometry.
Following mechanical digestion and RBC lysis, single cell suspensions were blocked with anti-CD16/32 for 20 minutes on ice. Cells were incubated with appropriate antibodies for 30 minutes on ice.
Murine antibodies used for flow cytometry include those recognizing CD45 (clone 30-F11), CD3 (clone 145-2C11), CD8 (clone 53-6.7), CD4 (clone RM4-5), PD-1 (clone 29F.1A12), Tim-3 (clone RMT3-23), CTLA-4 (clone UC10-4B9), LAG-3 (clone C9B7W), B220 (clone RA3-6B2), NK1.1 (clone PK136), CD11b (clone M1/70), Ly6G (clone 1A8), Ly6C (clone AL-21), FoxP3 (clone FJK-16s), and Ki-67 (clone 16A8). Human antibodies used for flow cytometry were those recognizing β2-microglobulin (clone 2M2) and HLA-A, B, C (clone W6/32). Antibodies were purchased from Biolegend with the exception of anti-FoxP3 from eBioscience and anti-Ly6C from BD Pharmigen. All antibodies used for flow cytometry were directly conjugated to fluorophores. […] Flow cytometry was performed on a LSRII (BD Biosciences, San Jose, Calif.) or FACSCANTOII (BD Biosciences), and data was analyzed using FlowJo® (TreeStar).

[4] = system: MDA-MB-453 cells; assay: Expression analysis (transcriptome, qPCR, Western blot, ELISA) in MDA-MB-453 cells treated in vitro; assay type: cell-based, human; settings: SASP gene, abemaciclib 500 nM, 7 days, relative to DMSO
[5] = system: MMTV-rtTA/tetO-HER2 tumors; assay: Gene expression (transcriptome, qPCR) in MMTV-rtTA/tetO-HER2 tumor tissue; assay type: in vivo, mouse
[6] = Plasma autoantibody ELISAs (anti-ANA, anti-dsDNA); assay type: in vivo, mouse; settings: tumor-free and tumor-bearing mice, 12 days
Method: For the last 24 hours, the culture media was replaced with serum free media. Following concentration of conditioned media using Amicon® Ultra centrifugal filters (Millipore, Billerica, Mass.), cytokines were analyzed according to the manufacturer's recommendations using the following kits: human IFN gamma ELISA Ready-SET-Go!® (Affymetrix eBioscience), human TNF alpha ELISA Ready-SET-Go!® (Affymetrix eBioscience), Verikine human IFN alpha ELISA kit (PBL assay science, Piscataway, N.J.), VeriKine-HS human IFN beta serum ELISA kit (PBL assay science), human IL-28B quantikine ELISA kit (R&D Systems, Minneapolis, Minn.), human […] Systems), and human IL-29 DuoSet ELISA (R&D Systems). Anti-ANA and anti-dsDNA ELISAs (Alpha Diagnostic, San Antonio, Tex.) were performed according to the manufacturer's instructions on plasma isolated from tumor free or tumor-bearing mice. Absorbance was measured on a SynergyTM Neo plate reader (BioTek, Winooski, Vt.) using Gen5TM software.

[7] = system: MMTV-rtTA/tetO-HER2 tumors; assay: Tumor growth in MMTV-rtTA/tetO-HER2 transgenic mice; assay type: in vivo, mouse; settings: bulky tumors growing prior to treatment; three independent experiments
Excerpt: Tumor formation was induced in MMTV-rtTA/tetO-HER2 mice with doxycycline as previously described in Goel et al. (2016) Cancer Cell 29:255-269. Female FVB mice (7 weeks of age) were purchased from Taconic Biosciences (Hudson, N.Y.). Female J:NU nude mice (8 weeks of age) were purchased from Jackson Labs (Bar Harbor, Me.). FVB CD45.2+ mice used as a source of T cells for in vitro studies were a kind gift from Dr. Daniel Tenen. For tumor growth studies in J:NU mice, MMTV-rtTA/tetO-HER2 tumor explants were orthotopically implanted bilaterally into nude mice, as previously described in Goel et al. (2016), supra. […] For tumor experiments in transgenic MMTV-rtTA/tetO-HER2 mice, tumors measured between 5 mm and 15 mm when treatment was begun. Mice were assigned into treatment groups so that the distribution of tumor volumes was even between groups. Tumor volume was calculated as previously described in Goel et al. (2016), supra and tumors were measured by caliper 2-3 times per week. For tumor growth curve analysis, one-way ANOVA tests were performed with correction for multiple comparisons using Sidak's multiple comparisons test. […]

[8] = system: tumor-infiltrating CD8+ and CD4+ T cells; assay: Inhibitory co-receptor expression on intratumoral T cells (flow cytometry); assay type: in vivo, mouse
Method: Tumors were first mechanically disrupted by chopping, then chemically digested in dissociation buffer (2 mg/mL collagenase type IV (Worthington Biochemical, Lakewood, N.J.), 0.02 mg/mL DNase (Sigma Aldrich) in DMEM (Life Technologies) containing 5% FBS (Life Technologies), PenStrep (Hyclone)) with agitation at 37° C. for 45 minutes. After RBC lysis, single cell suspensions were blocked with anti-CD16/32 for 20 minutes on ice. Then, cells were incubated with the appropriate antibodies for 30 minutes on ice.
Murine antibodies used for flow cytometry include those recognizing CD45 (clone 30-F11), CD3 (clone 145-2C11), CD8 (clone 53-6.7), CD4 (clone RM4-5), PD-1 (clone 29F.1A12), Tim-3 (clone RMT3-23), CTLA-4 (clone UC10-4B9), LAG-3 (clone C9B7W), B220 (clone RA3-6B2), NK1.1 (clone PK136), CD11b (clone M1/70), Ly6G (clone 1A8), Ly6C (clone AL-21), FoxP3 (clone FJK-16s), and Ki-67 (clone 16A8). Human antibodies used for flow cytometry were those recognizing β2-microglobulin (clone 2M2) and HLA-A, B, C (clone W6/32). Antibodies were purchased from Biolegend with the exception of anti-FoxP3 from eBioscience and anti-Ly6C from BD Pharmigen. All antibodies used for flow cytometry were directly conjugated to fluorophores. The anti-mouse/rat FoxP3 staining set (eBioscience) was used for intracellular staining according to the manufacturer's instructions. 7AAD was used to distinguish live/dead cells, except for analyses requiring intracellular staining when eFluor® 450 fixable viability dye (eBioscience) or Zombie Yellow™ fixable viability dye (Biolegend) were used. To determine the absolute number of cells in a sample, CountBright™ absolute counting beads (Molecular Probes, ThermoFisher) were added. Flow cytometry was performed on a LSRII (BD Biosciences, San Jose, Calif.) or FACSCANTOII (BD Biosciences), and data was analyzed using FlowJo® (TreeStar).
Furthermore, the mRNA level of Ifng (the main effector cytokine of cytotoxic T cells) was more than 4-fold higher in treated bulk tumor tissue (FIG. 13D).

| Compound | beta galactosidase and interleukin-6 expression [1] | average reduction in tumor volume at day 13 of treatment [2] | total thymic mass [3] | Fold change (abema vs DMSO treatment): COL1A1 [4] | Fold change (abema vs DMSO treatment): COL1A1 ([5]; SASP gene, MMTV-rtTA/tetO-HER2 tumors, abemaciclib 12 days, relative to vehicle) | mRNA level of Ifng in bulk tumor tissue, treated vs vehicle ([5]; qPCR) | autoimmune phenotype: anti-nuclear antibody (ANA) or anti-dsDNA antibody levels [6] | average reduction in tumor volume at the 12-day end point [7] | fractions of PD-1high and PD-1+/TIM-3+ cytotoxic T cells ([8]; 6 days treatment vs vehicle) | number of inhibitory receptors detected on any given cytotoxic T cell ([8]; 6 days treatment vs vehicle) | reduction of PD-1+/TIM-3+ cytotoxic T cell fraction ([8]; 6 days treatment vs vehicle) | CD8+ cells expressing none of the inhibitory receptors ([8]; abemaciclib treated tumors, 6 days) |
| --- | --- | --- | --- | --- | --- | --- | --- | --- | --- | --- | --- | --- |
| COc1cccc2c1C(=O)c1c(O)c3c(c(O)c1C2=O)C[C@@](O)(C(=O)CO)C[C@@H]3O[C@H]1C[C@H](N)[C@H](O)[C@H](C)O1 [doxorubicin] | increased |  |  |  |  |  |  |  |  |  |  |  |
| CCN1CCN(Cc2ccc(Nc3ncc(F)c(-c4cc(F)c5nc(C)n(C(C)C)c5c4)n3)nc2)CC1 [abemaciclib] |  | 35% | significantly reduced | 0.752 fold | 1.207 fold | more than 4 fold | No associated increases | 40% | significantly reduced | lower | 50% | over 50% |
| CC(=O)c1c(C)c2cnc(Nc3ccc(N4CCNCC4)cn3)nc2n(C2CCCC2)c1=O [palbociclib] |  |  | significantly reduced |  |  |  |  |  |  |  |  |  |
